pIC50: −log10 of the molar value.
Biological target: purified human Hsp90
Test: Binding Assay: fluorescence polarization with BODIPY-labeled geldanamycin
Details: BODIPY-GM 10 nM, Hsp90 30 nM
How it was run: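 Compounds in 2% DMSO final compete with 10 nM BODIPY-GM for 30 nM purified human Hsp90, incubated overnight at room temperature in pH 7.3 HEPES buffer containing Na2MoO4 and DTT. Polarization (mP, ex/em 485/530) normalized to DMSO gives percent inhibition; autofluorescence-confounded data excluded.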

| pIC50 | % Inhibition at 5 μM Compound Concentration [%] | Structure (SMILES) |
| --- | --- | --- |
| 5.15 |  | COc1ccc([N+](=O)[O-])cc1Sc1nc2c(N)ncnc2n1CCc1ccccc1Cl [Example 318, 9-[2-(2-Chlorophenyl)ethyl]-8-[(2-methoxy-5-nitrophenyl)thio]-9H-purin-6-amine] |
|  | 27.0 | COc1ccc([N+](=O)[O-])cc1Sc1nc2c(N)ncn(CCc3ccccc3Cl)c-2n1 [Example 319, 3-[2-(2-Chlorophenyl)ethyl]-8-[(2-methoxy-5-nitrophenyl)thio]-3H-purin-6-amine] |
| 6.62 |  | N#Cc1cc2c(cc1Sc1nc3c(N)ncnc3n1CCc1ccccc1)OCO2 [Example 320, 6-{[6-Amino-9-(2-phenylethyl)-9H-purin-8-yl]thio}-1,3-benzodioxole-5-carbonitrile] |
|  | 49.0 | N#Cc1cc2c(cc1Sc1nc3c(N)ncn(CCc4ccccc4)c-3n1)OCO2 [Example 321, 6-{[6-Amino-3-(2-phenylethyl)-3H-purin-8-yl]thio}-1,3-benzodioxole-5-carbonitrile] |
| 7.00 |  | COc1ccc(I)c(Sc2nc3c(N)ncnc3n2CCc2ccccc2)c1 [Example 322, 8-[(2-Iodo-5-methoxyphenyl)thio]-9-(2-phenylethyl)-9H-purin-6-amine] |
|  | 0.0 | COc1ccc(I)c(Sc2nc3c(N)ncn(CCc4ccccc4)c-3n2)c1 [Example 323, 8-[(2-Iodo-5-methoxyphenyl)thio]-3-(2-phenylethyl)-3H-purin-6-amine] |
| 5.55 |  | COc1ccc(C)cc1Sc1nc2c(N)ncnc2n1CCc1ccccc1Cl [Example 324, 9-[2-(2-Chlorophenyl)ethyl]-8-[(2-methoxy-5-methylphenyl)thio]-9H-purin-6-amine] |
|  | 0.0 | COc1ccc(C)cc1Sc1nc2c(N)ncn(CCc3ccccc3Cl)c-2n1 [Example 325, 3-[2-(2-Chlorophenyl)ethyl]-8-[(2-methoxy-5-methylphenyl)thio]-3H-purin-6-amine] |
| 7.46 |  | N#Cc1cc2c(cc1Sc1nc3c(N)ncnc3n1CCc1ccccc1Cl)OCO2 [Example 326, 6-({6-Amino-9-[2-(2-chlorophenyl)ethyl]-9H-purin-8-yl}thio)-1,3-benzodioxole-5-carbonitrile] |
|  | 33.0 | N#Cc1cc2c(cc1Sc1nc3c(N)ncn(CCc4ccccc4Cl)c-3n1)OCO2 [Example 327, 6-({6-Amino-3-[2-(2-chlorophenyl)ethyl]-3H-purin-8-yl}thio)-1,3-benzodioxole-5-carbonitrile] |
| < 5.10 |  | Nc1ncnc2c1nc(Sc1cc(OC(F)(F)F)ccc1OC1CCCC1)n2CCc1ccccc1 [Example 328, 8-{[2-(Cyclopentyloxy)-5-(trifluoromethoxy)phenyl]thio}-9-(2-phenylethyl)-9H-purin-6-amine] |
|  | 25.0 | Nc1ncnc2c1nc(Sc1cc(OC(F)(F)F)ccc1OC1CCCC1)n2CCc1ccccc1Cl [Example 329, 9-[2-(2-Chlorophenyl)ethyl]-8-{[2-(cyclopentyloxy)-5-(trifluoromethoxy)phenyl]thio}-9H-purin-6-amine] |
| 7.15 |  | Cc1ncsc1CCn1c(Sc2cc3c(cc2Br)OCO3)nc2c(N)ncnc21 [Example 330, 8-[(6-Bromo-1,3-benzodioxol-5-yl)thio]-9-[2-(4-methyl-1,3-thiazol-5-yl)ethyl]-9H-purin-6-amine] |
|  | 25.0 | Cc1ncsc1CCn1cnc(N)c2nc(Sc3cc4c(cc3Br)OCO4)nc1-2 [Example 331, 8-[(6-Bromo-1,3-benzodioxol-5-yl)thio]-3-[2-(4-methyl-1,3-thiazol-5-yl)ethyl]-3H-purin-6-amine] |
|  | 43.0 | CC(C)(NCCn1cnc(N)c2nc(Sc3cc4c(cc3Br)OCO4)nc1-2)c1ccccn1 [Example 333, 8-[(6-Bromo-1,3-benzodioxol-5-yl)thio]-3-{2-[(1-methyl-1-pyridin-2-ylethyl)amino]ethyl}-3H-purin-6-amine] |
| 5.64 |  | COc1ccc(OC)c(Sc2nc3c(N)ncnc3n2CCNC(C)(C)c2ccccn2)c1 [Example 334, 8-[(2,5-Dimethoxyphenyl)thio]-9-{2-[(1-methyl-1-pyridin-2-ylethyl)amino]ethyl}-9H-purin-6-amine] |
| 5.52 |  | COc1ccc(OC)c(Sc2nc3c(N)ncnc3n2CCn2ccnc2)c1 [Example 335, 8-[(2,5-Dimethoxyphenyl)thio]-9-[2-(1H-imidazol-1-yl)ethyl]-9H-purin-6-amine] |
|  | 13.0 | COc1ccc(OC)c(Sc2nc3c(N)ncn(CCn4ccnc4)c-3n2)c1 [Example 336, 8-[(2,5-Dimethoxyphenyl)thio]-3-[2-(1H-imidazol-1-yl)ethyl]-3H-purin-6-amine] |

| pIC50 | % Inhibition at 5 μM Compound Concentration [%] | Structure (SMILES) |
| --- | --- | --- |
| < 5.10 |  | CCOC(=O)N1CCCCC1CCn1c(Sc2cc(OC)ccc2OC)nc2c(N)ncnc21 (stereo not drawn) [Example 337, 2-{2-[6-Amino-8-(2,5-dimethoxy-phenylsulfanyl)-purin-9-yl]-ethyl}-piperidine-1-carboxylic acid ethyl ester] |
|  | 0 | CCOC(=O)N1CCCCC1CCn1cnc(N)c2nc(Sc3cc(OC)ccc3OC)nc1-2 (stereo not drawn) [Example 338, 2-{2-[6-amino-8-(2,5-dimethoxy-phenylsulfanyl)-purin-3-yl]-ethyl}-piperidine-1-carboxylic acid ethyl ester] |
| 6.94 |  | CCOC(=O)N1CCCCC1CCn1c(Sc2cc3c(cc2Br)OCO3)nc2c(N)ncnc21 (stereo not drawn) [Example 339, Ethyl 2-(2-{6-amino-8-[(6-bromo-1,3-benzodioxol-5-yl)thio]-9H-purin-9-yl}ethyl)piperidine-1-carboxylate] |
|  | 23 | CCOC(=O)N1CCCCC1CCn1cnc(N)c2nc(Sc3cc4c(cc3Br)OCO4)nc1-2 (stereo not drawn) [Example 340, Ethyl 2-(2-{6-amino-8-[(6-bromo-1,3-benzodioxol-5-yl)thio]-3H-purin-3-carboxylate] |
| 6.70 |  | CC(C)(C)OC(=O)N1CCC(CCn2c(Sc3cc4c(cc3Br)OCO4)nc3c(N)ncnc32)CC1 [Example 341, tert-Butyl 4-(2-{6-amino-8-[(6-bromo-1,3-benzodioxol-5-yl)thio]-9H-purin-9-yl}ethyl)piperidine-1-carboxylate] |
| 4.72 |  | COc1ccc(OC)c(Sc2nc3c(N)ncnc3n2CCC2CCN(C(=O)OC(C)(C)C)CC2)c1 [Example 342, tert-Butyl 4-(2-{6-amino-8-[(2,5-dimethoxyphenyl)thio]-9H-purin-9-yl}ethyl)piperidine-1-carboxylate] |
|  | 0 | COc1ccc(OC)c(Sc2nc3c(N)ncn(CCC4CCN(C(=O)OC(C)(C)C)CC4)c-3n2)c1 [Example 343, tert-Butyl 4-(2-{6-amino-8-[(2,5-dimethoxyphenyl)thio]-3H-purin-3-yl}ethyl)piperidine-1-carboxylate] |
|  | 22 | CC(C)(C)OC(=O)N1CCC(CCn2cnc(N)c3nc(Sc4cc5c(cc4Br)OCO5)nc2-3)CC1 [Example 344, tert-Butyl 4-(2-{6-amino-8-[(6-bromo-1,3-benzodioxol-5-yl)thio]-3H-purin-3-yl}ethyl)piperidine-1-carboxylate] |
|  | 3 | CC(C)(C)OC(=O)N1CCCC(CCn2cnc(N)c3nc(Sc4cc5c(cc4Br)OCO5)nc2-3)C1 (stereo not drawn) [Example 345, tert-Butyl 3-(2-{6-amino-8-[(6-bromo-1,3-benzodioxol-5-yl)thio]-3H-purin-3-yl}ethyl)piperidine-1-carboxylate] |
| 6.49 |  | CC(C)(C)OC(=O)N1CCCC(CCn2c(Sc3cc4c(cc3Br)OCO4)nc3c(N)ncnc32)C1 (stereo not drawn) [Example 346, tert-Butyl 3-(2-{6-amino-8-[(6-bromo-1,3-benzodioxol-5-yl)thio]-9H-purin-9-yl}ethyl)piperidine-1-carboxylate] |
| 5.60 |  | COc1ccc(OC)c(Sc2nc3c(N)ncnc3n2CCC2CCCN(C(=O)OC(C)(C)C)C2)c1 (stereo not drawn) [Example 347, tert-Butyl 3-(2-{6-amino-8-[(2,5-dimethoxyphenyl)thio]-9H-purin-9-yl}ethyl)piperidine-1-carboxylate] |
| 6.10 |  | COc1ccc(OC)c(Sc2nc3c(N)ncnc3n2CCC2CCOCC2)c1 [Example 348, 8-[(2,5-Dimethoxyphenyl)thio]-9-[2-(tetrahydro-2H-pyran-4-yl)ethyl]-9H-purin-6-amine] |
|  | 12 | COc1ccc(OC)c(Sc2nc3c(N)ncn(CCC4CCOCC4)c-3n2)c1 [Example 349, 8-[(2,5-Dimethoxyphenyl)thio]-3-[2-(tetrahydro-2H-pyran-4-yl)ethyl]-3H-purin-6-amine] |
|  | 25 | Nc1ncn(CCC2CCOCC2)c2nc(Sc3cc4c(cc3Br)OCO4)nc1-2 [Example 350, 8-[(6-Bromo-1,3-benzodioxol-5-yl)thio]-3-[2-(tetrahydro-2H-pyran-4-yl)ethyl]-3H-purin-6-amine] |
|  | 8 | CC1(C)CC(CCn2cnc(N)c3nc(Sc4cc5c(cc4Br)OCO5)nc2-3)CC(C)(C)N1 [Example 351, 8-[(6-Bromo-1,3-benzodioxol-5-yl)thio]-3-[2-(2,2,6,6-tetramethylpiperidin-4-yl)ethyl]-3H-purin-6-amine] |
|  | 35 | CN1CCCC1CCn1cnc(N)c2nc(Sc3cc4c(cc3Br)OCO4)nc1-2 (stereo not drawn) [Example 352, 8-[(6-Bromo-1,3-benzodioxol-5-yl)thio]-3-[2-(1-methylpyrrolidin-2-yl)ethyl]-3H-purin-6-amine] |
| 7.24 |  | Nc1ncnc2c1nc(Sc1cc3c(cc1Br)OCO3)n2CCC1CCOCC1 [Example 353, 8-[(6-Bromo-1,3-benzodioxol-5-yl)thio]-9-[2-(tetrahydro-2H-pyran-4-yl)ethyl]-9H-purin-6-amine] |
| 6.60 |  | CC1(C)CC(CCn2c(Sc3cc4c(cc3Br)OCO4)nc3c(N)ncnc32)CC(C)(C)N1 [Example 354, 8-[(6-Bromo-1,3-benzodioxol-5-yl)thio]-9-[2-(2,2,6,6-tetramethylpiperidin-4-yl)ethyl]-9H-purin-6-amine] |

From US7595401B2, “Therapeutic compounds and their use in cancer” (Myriad Pharmaceuticals, Inc., priority 2006, dated 2009)
